Measurements as given in US20250114345A1, “COMPOUNDS AND COMPOSITIONS AS CBP/P300 DEGRADERS AND USES THEREOF” (Oncopia Therapeutics, Inc. d/b/a/ SK Life Science Labs, priority 2023, published 2025).

Molecular target: T1, p300 (Homo sapiens, UniProt Q09472)
T1 construct: host or cells: A549 P300 HiBit cells
Assay: P300 degradation, HiBit technology in A549 P300 HiBit cells (2 h)
Format: cell-based
Conditions: 2 hrs post treatment; for Dmax: A549, A549 P300 HiBit cells; for DC50: A549 P300 HiBit cells
In short: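 Degradation potency and Dmax came from HiBiT luminescence in tagged A549 cells treated with serially diluted compound (DMSO stocks at 10 mM) after overnight equilibration in F-12K with 10% heat-inactivated FBS.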

T1 sequence (Q09472 whole entry): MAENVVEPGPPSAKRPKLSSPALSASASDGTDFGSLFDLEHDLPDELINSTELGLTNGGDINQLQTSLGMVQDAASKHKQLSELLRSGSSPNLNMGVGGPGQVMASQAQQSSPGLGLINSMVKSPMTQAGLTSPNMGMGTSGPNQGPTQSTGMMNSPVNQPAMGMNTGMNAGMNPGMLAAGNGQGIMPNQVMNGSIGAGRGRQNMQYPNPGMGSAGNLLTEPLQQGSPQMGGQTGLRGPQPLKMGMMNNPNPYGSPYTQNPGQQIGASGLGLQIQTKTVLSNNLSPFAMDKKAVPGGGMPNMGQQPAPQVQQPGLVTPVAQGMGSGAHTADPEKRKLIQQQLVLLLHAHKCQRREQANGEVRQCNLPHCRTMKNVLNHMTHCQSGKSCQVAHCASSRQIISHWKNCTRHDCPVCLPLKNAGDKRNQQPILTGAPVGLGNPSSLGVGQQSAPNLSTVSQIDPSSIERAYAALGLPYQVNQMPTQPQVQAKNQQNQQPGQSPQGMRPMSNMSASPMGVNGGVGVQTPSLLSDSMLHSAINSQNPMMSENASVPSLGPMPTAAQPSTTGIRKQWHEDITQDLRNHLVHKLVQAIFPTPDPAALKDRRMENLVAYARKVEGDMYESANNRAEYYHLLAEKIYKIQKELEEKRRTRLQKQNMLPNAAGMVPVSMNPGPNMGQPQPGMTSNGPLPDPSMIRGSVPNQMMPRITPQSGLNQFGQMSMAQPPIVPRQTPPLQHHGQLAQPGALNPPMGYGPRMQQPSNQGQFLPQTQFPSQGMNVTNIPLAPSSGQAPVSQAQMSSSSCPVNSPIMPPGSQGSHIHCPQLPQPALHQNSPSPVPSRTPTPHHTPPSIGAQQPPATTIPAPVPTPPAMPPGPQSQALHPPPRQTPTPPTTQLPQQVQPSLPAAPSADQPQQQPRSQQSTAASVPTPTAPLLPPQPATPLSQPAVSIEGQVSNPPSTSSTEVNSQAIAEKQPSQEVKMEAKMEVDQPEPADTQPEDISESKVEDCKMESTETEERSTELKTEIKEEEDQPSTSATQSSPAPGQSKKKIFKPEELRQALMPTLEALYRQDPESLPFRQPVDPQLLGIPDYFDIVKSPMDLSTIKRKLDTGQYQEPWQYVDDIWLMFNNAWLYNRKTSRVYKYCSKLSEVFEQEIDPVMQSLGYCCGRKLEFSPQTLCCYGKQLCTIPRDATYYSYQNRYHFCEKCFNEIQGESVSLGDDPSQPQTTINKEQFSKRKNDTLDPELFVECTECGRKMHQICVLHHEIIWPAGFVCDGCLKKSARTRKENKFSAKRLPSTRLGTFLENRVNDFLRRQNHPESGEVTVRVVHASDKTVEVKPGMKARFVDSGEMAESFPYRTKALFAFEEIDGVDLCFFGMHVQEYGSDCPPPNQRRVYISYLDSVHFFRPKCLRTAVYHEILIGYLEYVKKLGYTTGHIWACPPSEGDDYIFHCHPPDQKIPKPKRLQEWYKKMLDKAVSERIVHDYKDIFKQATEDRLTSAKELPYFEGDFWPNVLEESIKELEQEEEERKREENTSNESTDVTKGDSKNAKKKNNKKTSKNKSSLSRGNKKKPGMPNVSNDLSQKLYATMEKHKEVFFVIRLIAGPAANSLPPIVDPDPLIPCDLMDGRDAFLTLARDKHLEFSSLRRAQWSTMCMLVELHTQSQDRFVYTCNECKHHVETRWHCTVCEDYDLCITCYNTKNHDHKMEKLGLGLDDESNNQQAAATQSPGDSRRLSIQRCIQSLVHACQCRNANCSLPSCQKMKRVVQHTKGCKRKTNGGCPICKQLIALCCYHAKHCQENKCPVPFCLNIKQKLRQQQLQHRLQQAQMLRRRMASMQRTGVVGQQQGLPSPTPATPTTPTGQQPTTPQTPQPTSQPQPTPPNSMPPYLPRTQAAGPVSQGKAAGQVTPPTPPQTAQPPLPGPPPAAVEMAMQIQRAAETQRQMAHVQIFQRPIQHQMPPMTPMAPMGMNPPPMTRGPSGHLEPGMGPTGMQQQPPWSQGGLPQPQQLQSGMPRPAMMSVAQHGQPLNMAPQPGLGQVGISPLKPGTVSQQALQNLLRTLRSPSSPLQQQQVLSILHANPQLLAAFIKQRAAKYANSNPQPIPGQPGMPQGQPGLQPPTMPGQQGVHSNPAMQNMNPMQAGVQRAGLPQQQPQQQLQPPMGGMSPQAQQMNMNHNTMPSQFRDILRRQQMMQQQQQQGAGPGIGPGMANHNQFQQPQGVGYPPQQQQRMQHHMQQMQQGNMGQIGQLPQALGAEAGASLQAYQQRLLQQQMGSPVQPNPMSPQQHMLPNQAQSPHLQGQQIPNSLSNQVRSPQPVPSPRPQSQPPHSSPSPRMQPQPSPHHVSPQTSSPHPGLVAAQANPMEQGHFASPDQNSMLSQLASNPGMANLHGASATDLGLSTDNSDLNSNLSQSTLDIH

With `Cc1cc2c(N3CCN(C)c4nc(-c5ccc(C(=O)NCC#Cc6cc7c(C8CCC(=O)NC8=O)cccc7o6)nc5)ncc43)cccc2n(C)c1=O` (centres unmarked) [Example B65, 5-(5-(1,3-dimethyl-2-oxo-1,2-dihydroquinolin-5-yl)-8-methyl-5,6,7,8-tetrahydropteridin-2-yl)-N-(3-(4-(2,6-dioxopiperidin-3-yl)benzofuran-2-yl)prop-2-yn-1-yl)picolinamide] the Dmax was > 80% and the DC50 was 1 to 9.9 nM.
`Cc1cc2c(N3CCCc4nc(-c5ccc(C(=O)NCC#Cc6ccc7occ(C8CCC(=O)NC8=O)c7c6)nc5)ncc43)nc(C3CCOCC3)cc2n(C)c1=O` (centres unmarked) [Example B70, 5-(5-(1,3-dimethyl-2-oxo-7-(tetrahydro-2H-pyran-4-yl)-1,2-dihydro-1,6-naphthyridin-5-yl)-5,6,7,8-tetrahydropyrido[3,2-d]pyrimidin-2-yl)-N-(3-(3-(2,6-dioxopiperidin-3-yl)benzofuran-5-yl)prop-2-yn-1-yl)picolinamide] showed a Dmax of 60 to 79% and a DC50 of 1 to 9.9 nM.
In the case of `Cc1nc2c(N3CCCc4nc(-c5ccc(C(=O)NCC#Cc6ccc7occ(C8CCC(=O)NC8=O)c7c6)nc5)ncc43)cc(C3CCOCC3)cc2n(C)c1=O` (centres unmarked) [Example B78, 5-(5-(1,3-dimethyl-2-oxo-7-(tetrahydro-2H-pyran-4-yl)-1,2-dihydroquinoxalin-5-yl)-5,6,7,8-tetrahydropyrido[3,2-d]pyrimidin-2-yl)-N-(3-(3-(2,6-dioxopiperidin-3-yl)benzofuran-5-yl)prop-2-yn-1-yl)picolinamide], the Dmax is reported as < 20% and the DC50 is reported as > 1000 nM.
With `Cc1cc(=O)n(C)c2cc(C3CCOCC3)cc(N3CCCc4nc(-c5ccc(C(=O)NCC#Cc6ccc7occ(C8CCC(=O)NC8=O)c7c6)nc5)ncc43)c12` (centres unmarked) [Example B80, 5-(5-(1,4-dimethyl-2-oxo-7-(tetrahydro-2H-pyran-4-yl)-1,2-dihydroquinolin-5-yl)-5,6,7,8-tetrahydropyrido[3,2-d]pyrimidin-2-yl)-N-(3-(3-(2,6-dioxopiperidin-3-yl)benzofuran-5-yl)prop-2-yn-1-yl)picolinamide] the Dmax was < 20% and the DC50 was > 1000 nM.
In the case of `Cc1cc2c(N3CCCc4nc(-c5ccc(C(=O)NCC#Cc6ccc7occ(C8(C)CCC(=O)NC8=O)c7c6)nc5)ncc43)cc(C3CCOCC3)cc2n(C)c1=O` (centres unmarked) [Example B85, 5-(5-(1,3-dimethyl-2-oxo-7-(tetrahydro-2H-pyran-4-yl)-1,2-dihydroquinolin-5-yl)-5,6,7,8-tetrahydropyrido[3,2-d]pyrimidin-2-yl)-N-(3-(3-(3-methyl-2,6-dioxopiperidin-3-yl)benzofuran-5-yl)prop-2-yn-1-yl)picolinamide], the Dmax is reported as < 20% and the DC50 is reported as > 1000 nM.
`Cc1cc2c(N3CCCc4nc(-c5ccc(C(=O)NCC#Cc6ccc7occ(C8CCC(=O)NC8=O)c7c6)nc5)ncc43)nc(N3CCC3)cc2n(C)c1=O` (centres unmarked) [Example B86, 5-(5-(7-(azetidin-1-yl)-1,3-dimethyl-2-oxo-1,2-dihydro-1,6-naphthyridin-5-yl)-5,6,7,8-tetrahydropyrido[3,2-d]pyrimidin-2-yl)-N-(3-(3-(2,6-dioxopiperidin-3-yl)benzofuran-5-yl)prop-2-yn-1-yl)picolinamide] was tested, and the Dmax was > 80% and the DC50 was 1 to 9.9 nM.
In the case of `Cc1cc(-c2ncc3c(n2)CCCN3c2nc(N3CCOCC3)cc3c2cc(C)c(=O)n3C)cnc1C(=O)NCC#Cc1cc2c(C3CCC(=O)NC3=O)cccc2o1` (centres unmarked) [Example B89, 5-(5-(1,3-dimethyl-7-morpholino-2-oxo-1,2-dihydro-1,6-naphthyridin-5-yl)-5,6,7,8-tetrahydropyrido[3,2-d]pyrimidin-2-yl)-N-(3-(4-(2,6-dioxopiperidin-3-yl)benzofuran-2-yl)prop-2-yn-1-yl)-3-methylpicolinamide], the Dmax is reported as > 80% and the DC50 is reported as 1 to 9.9 nM.
In the case of `Cc1cc2c(N3CCOc4cc(-c5ccc(C(=O)NCC#Cc6ccc7occ(C8CCC(=O)NC8=O)c7c6)nc5)c(F)cc43)cc(C(C)C)cc2n(C)c1=O` (centres unmarked) [Example B91, N-(3-(3-(2,6-dioxopiperidin-3-yl)benzofuran-5-yl)prop-2-yn-1-yl)-5-(6-fluoro-4-(7-isopropyl-1,3-dimethyl-2-oxo-1,2-dihydroquinolin-5-yl)-3,4-dihydro-2H-benzo[b][1,4]oxazin-7-yl)picolinamide], the Dmax is reported as > 80% and the DC50 is reported as 10 to 99 nM.
Compound `CCc1cc2c(cc(C)c(=O)n2C)c(-c2cccc3cc(-c4ccc(C(=O)NCC#Cc5ccc6occ(C7CCC(=O)NC7=O)c6c5)nc4)ncc23)n1` (centres unmarked) [Example B93, N-(3-(3-(2,6-dioxopiperidin-3-yl)benzofuran-5-yl)prop-2-yn-1-yl)-5-(8-(7-ethyl-1,3-dimethyl-2-oxo-1,2-dihydro-1,6-naphthyridin-5-yl)isoquinolin-3-yl)picolinamide] has a Dmax of 60 to 79% and a DC50 of 1 to 9.9 nM.
`Cc1cc2c(N3CCN(C)c4cc(-c5ccc(C(=O)NCC#Cc6cc7c(C8CCC(=O)NC8=O)cccc7o6)nc5)ncc43)cc(C(C)C)cc2n(C)c1=O` (centres unmarked) [Example B95, N-(3-(4-(2,6-dioxopiperidin-3-yl)benzofuran-2-yl)prop-2-yn-1-yl)-5-(4-(7-isopropyl-1,3-dimethyl-2-oxo-1,2-dihydroquinolin-5-yl)-1-methyl-1,2,3,4-tetrahydropyrido[3,4-b]pyrazin-7-yl)picolinamide] was tested, and the Dmax was > 80% and the DC50 was < 1 nM.
For `Cc1cc2c(N3CCCc4nc(-c5ccc(C(=O)NCC#Cc6cc7c(C89CC(C8)C(=O)NC9=O)cccc7o6)nc5)ncc43)cc(C3CCOCC3)cc2n(C)c1=O` [Example B97, 5-(5-(1,3-dimethyl-2-oxo-7-(tetrahydro-2H-pyran-4-yl)-1,2-dihydroquinolin-5-yl)-5,6,7,8-tetrahydropyrido[3,2-d]pyrimidin-2-yl)-N-(3-(4-(2,4-dioxo-3-azabicyclo[3.1.1]heptan-1-yl)benzofuran-2-yl)prop-2-yn-1-yl)picolinamide], the Dmax was < 20% and the DC50 was 100 to 999 nM.
`Cc1cc2c(N3CCOc4cc(-c5ccc(C(=O)NCC#Cc6ccc7occ(C8CCC(=O)NC8=O)c7c6)nc5)c(F)cc43)cc(C3CCOCC3)cc2n(C)c1=O` (centres unmarked) [Example B99, 5-(4-(1,3-dimethyl-2-oxo-7-(tetrahydro-2H-pyran-4-yl)-1,2-dihydroquinolin-5-yl)-6-fluoro-3,4-dihydro-2H-benzo[b][1,4]oxazin-7-yl)-N-(3-(3-(2,6-dioxopiperidin-3-yl)benzofuran-5-yl)prop-2-yn-1-yl)picolinamide] was tested, and the Dmax was > 80% and the DC50 was 1 to 9.9 nM.
In the case of `Cc1cc2c(N3CCOc4cc(-c5ccc(C(=O)NCC#Cc6ccc7occ(C8CCC(=O)NC8=O)c7c6)nc5)c(F)cc43)cc(F)cc2n(C)c1=O` (centres unmarked) [Example B100, N-(3-(3-(2,6-dioxopiperidin-3-yl)benzofuran-5-yl)prop-2-yn-1-yl)-5-(6-fluoro-4-(7-fluoro-1,3-dimethyl-2-oxo-1,2-dihydroquinolin-5-yl)-3,4-dihydro-2H-benzo[b][1,4]oxazin-7-yl) picolinamide], the Dmax is reported as > 80% and the DC50 is reported as 1 to 9.9 nM.
For `Cc1cc2c(-c3cccc4cc(-c5ccc(C(=O)NCC#Cc6ccc7occ(C8CCC(=O)NC8=O)c7c6)nc5)ncc34)nc(N3CC(C)(O)C3)cc2n(C)c1=O` (centres unmarked) [Example B101, N-(3-(3-(2,6-dioxopiperidin-3-yl)benzofuran-5-yl)prop-2-yn-1-yl)-5-(8-(7-(3-hydroxy-3-methylazetidin-1-yl)-1,3-dimethyl-2-oxo-1,2-dihydro-1,6-naphthyridin-5-yl)isoquinolin-3-yl)picolinamide], the Dmax was > 80% and the DC50 was 1 to 9.9 nM.
For `Cc1cc(N2CCN(C)c3nc(-c4ccc(C(=O)NCC#Cc5cc6c(C7CCC(=O)NC7=O)cccc6o5)nc4)ncc32)c2cc(C)c(=O)n(C)c2c1` (centres unmarked) [Example B104, N-(3-(4-(2,6-dioxopiperidin-3-yl)benzofuran-2-yl)prop-2-yn-1-yl)-5-(8-methyl-5-(1,3,7-trimethyl-2-oxo-1,2-dihydroquinolin-5-yl)-5,6,7,8-tetrahydropteridin-2-yl)picolinamide], the Dmax was > 80% and the DC50 was 1 to 9.9 nM.
`Cn1c(=O)ccc2c(N3CCCc4nc(-c5ccc(C(=O)NCC#Cc6ccc7occ(C8CCC(=O)NC8=O)c7c6)nc5)ncc43)cc(C3CCOCC3)cc21` (centres unmarked) [Example B105, N-(3-(3-(2,6-dioxopiperidin-3-yl)benzofuran-5-yl)prop-2-yn-1-yl)-5-(5-(1-methyl-2-oxo-7-(tetrahydro-2H-pyran-4-yl)-1,2-dihydro-quinolin-5-yl)-5,6,7,8-tetrahydropyrido[3,2-d]pyrimidin-2-yl)picolinamide] was tested, and the Dmax was < 20% and the DC50 was > 1000 nM.
For `Cc1cc2c(N3CCOc4cc(-c5ccc(C(=O)NCC#Cc6ccc7occ(C8CCC(=O)NC8=O)c7c6)nc5)ncc43)cc(C3CCOCC3)cc2n(C)c1=O` (centres unmarked) [Example B109, 5-(4-(1,3-dimethyl-2-oxo-7-(tetrahydro-2H-pyran-4-yl)-1,2-dihydroquinolin-5-yl)-3,4-dihydro-2H-pyrido[4,3-b][1,4]oxazin-7-yl)-N-(3-(3-(2,6-dioxopiperidin-3-yl)benzofuran-5-yl)prop-2-yn-1-yl)picolinamide], the Dmax was > 80% and the DC50 was < 1 nM.
In the case of `COC1CN(c2cc(N3CCOc4cc(-c5ccc(C(=O)NCC#Cc6ccc7occ(C8CCC(=O)NC8=O)c7c6)nc5)c(F)cc43)c3cc(C)c(=O)n(C)c3c2)C1` (centres unmarked) [Example B113, N-(3-(3-(2,6-dioxopiperidin-3-yl)benzofuran-5-yl)prop-2-yn-1-yl)-5-(6-fluoro-4-(7-(3-methoxyazetidin-1-yl)-1,3-dimethyl-2-oxo-1,2-dihydroquinolin-5-yl)-3,4-dihydro-2H-benzo[b][1,4]oxazin-7-yl)picolinamide], the Dmax is reported as > 80% and the DC50 is reported as 1 to 9.9 nM.
With `Cc1cc2c(N3CCN(C)c4cc(-c5ccc(C(=O)NCC#Cc6cc7c(C8CCC(=O)NC8=O)cccc7o6)nc5)ncc43)cccc2n(C)c1=O` (centres unmarked) [Example B114, 5-(4-(1,3-dimethyl-2-oxo-1,2-dihydroquinolin-5-yl)-1-methyl-1,2,3,4-tetrahydropyrido [3,4-b]pyrazin-7-yl)-N-(3-(4-(2,6-dioxo-piperidin-3-yl)benzofuran-2-yl)prop-2-yn-1-yl)picolinamide] the Dmax was > 80% and the DC50 was < 1 nM.
